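Interpolation was linear, between the two tested concentrations surrounding the appropriate level; five concentrations were tested over 48 hours in 96-well plates. At the GI50, growth is halved.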 Activity calls are given as the source filed them. Cut-off read from the data, not from the text of the source: active = GI50 up to about 1.1 µM and inactive = higher.
Key:
Test in all cases: DTP human tumour cell line panel, 48 h
MDA-MB-231 = test system: MDA-MB-231
MCF7 = test system: MCF7
HOP-92 = test system: HOP-92
SK-MEL-28 = test system: SK-MEL-28
SF-268 = test system: SF-268
NCI-H460 = test system: NCI-H460
OVCAR-5 = test system: OVCAR-5
UACC-257 = test system: UACC-257
KM12 = test system: KM12
LOX IMVI = test system: LOX IMVI
SNB-75 = test system: SNB-75
ACHN = test system: ACHN
HCC 2998 = test system: HCC 2998
SNB-19 = test system: SNB-19
HL-60 = test system: HL-60
CCRF-CEM = test system: CCRF-CEM
UO-31 = test system: UO-31
NCI-H226 = test system: NCI-H226
OVCAR-3 = test system: OVCAR-3

Measured: GI50

O=C(CSC1=NC(=O)C2(NN1)c1ccccc1-c1ccccc12)NC(=S)Nc1ccccc1
inactive: MDA-MB-231 > 10 µM | MCF7 4.27 µM | HOP-92 > 10 µM | SK-MEL-28 > 10 µM | SF-268 > 10 µM | NCI-H460 > 10 µM | OVCAR-5 > 10 µM | UACC-257 > 10 µM | KM12 > 10 µM | LOX IMVI > 10 µM | SNB-75 > 10 µM | ACHN 1.81 µM | HCC 2998 > 10 µM | SNB-19 > 10 µM | HL-60 > 10 µM | CCRF-CEM > 10 µM | UO-31 4.7 µM | NCI-H226 8.2 µM

O=CNNC(=O)Nc1cccc2ccccc12
inactive: MDA-MB-231 > 100 µM | MCF7 > 100 µM | HOP-92 > 10 µM | SK-MEL-28 > 100 µM | SF-268 > 100 µM | NCI-H460 > 100 µM | OVCAR-5 > 100 µM | UACC-257 > 100 µM | KM12 > 100 µM | SNB-75 > 100 µM | ACHN > 100 µM | HCC 2998 > 100 µM | SNB-19 > 100 µM | HL-60 > 100 µM | CCRF-CEM > 100 µM | UO-31 > 100 µM | NCI-H226 67.1 µM

CC1CCC(C(C)C)C(OC(=O)NCn2cc(-c3ccccc3)nn2)C1 (stereo not given)
inactive: MDA-MB-231 > 100 µM | MCF7 > 100 µM | HOP-92 > 100 µM | SK-MEL-28 > 100 µM | SF-268 58.7 µM | NCI-H460 > 100 µM | OVCAR-5 > 100 µM | UACC-257 > 100 µM | KM12 > 100 µM | LOX IMVI > 100 µM | SNB-75 25.6 µM | ACHN > 100 µM | HCC 2998 85.1 µM | SNB-19 33.9 µM | HL-60 > 100 µM | CCRF-CEM > 100 µM | NCI-H226 75.2 µM

Nc1ncnc2c1ncn2C1C=CC(COS(N)(=O)=O)C1 (stereo not given)
inactive: MDA-MB-231 20.2 µM | MCF7 6.43 µM | HOP-92 15.7 µM | SK-MEL-28 20.5 µM | SF-268 33.7 µM | NCI-H460 12.2 µM | OVCAR-5 64.1 µM | UACC-257 63.5 µM | KM12 19.2 µM | LOX IMVI 5.53 µM | OVCAR-3 31 µM | SNB-75 21.9 µM | ACHN 23.9 µM | HCC 2998 35.7 µM | SNB-19 9.23 µM | HL-60 4.19 µM | CCRF-CEM 18.4 µM | UO-31 79.1 µM | NCI-H226 55.1 µM

CCc1cc2c(oc3cc(C)ccc32)c(=O)n1C
inactive: MDA-MB-231 > 10 µM | MCF7 > 10 µM | HOP-92 > 10 µM | SF-268 > 10 µM | NCI-H460 > 10 µM | OVCAR-5 > 10 µM | UACC-257 > 10 µM | KM12 > 10 µM | LOX IMVI > 10 µM | OVCAR-3 > 10 µM | SNB-75 > 10 µM | ACHN > 10 µM | HCC 2998 > 10 µM | SNB-19 > 10 µM | HL-60 > 10 µM | CCRF-CEM > 10 µM | UO-31 > 10 µM | NCI-H226 > 10 µM

COc1ccc2c(O)c(S(=O)(=O)c3ccc(C)cc3)c(=O)oc2c1OC
inactive: MDA-MB-231 > 100 µM | MCF7 > 100 µM | HOP-92 > 100 µM | SK-MEL-28 > 100 µM | SF-268 > 100 µM | NCI-H460 > 100 µM | OVCAR-5 > 100 µM | UACC-257 > 100 µM | KM12 > 100 µM | OVCAR-3 > 100 µM | SNB-75 > 100 µM | ACHN > 100 µM | HCC 2998 > 100 µM | SNB-19 > 100 µM | HL-60 > 100 µM | CCRF-CEM > 100 µM | UO-31 > 100 µM | NCI-H226 > 100 µM

COc1c(N2CCCCC2)c2c(=O)c3ccccc3oc2c2c3ccccc3n(C)c12
inactive: MDA-MB-231 > 100 µM | MCF7 29.7 µM | HOP-92 > 100 µM | SK-MEL-28 > 100 µM | SF-268 > 100 µM | NCI-H460 > 100 µM | OVCAR-5 > 100 µM | UACC-257 > 100 µM | KM12 > 100 µM | LOX IMVI > 100 µM | OVCAR-3 > 100 µM | SNB-75 > 100 µM | ACHN > 100 µM | HCC 2998 > 100 µM | SNB-19 > 100 µM | HL-60 57.3 µM | CCRF-CEM 64.3 µM | UO-31 > 100 µM | NCI-H226 > 100 µM

c1ccc(Cc2cccc3cc(-c4ccc(-c5ccccc5)cc4)[nH]c23)cc1
inactive: MDA-MB-231 99.5 µM | MCF7 97.1 µM | HOP-92 > 100 µM | SK-MEL-28 > 100 µM | SF-268 32.7 µM | NCI-H460 > 100 µM | OVCAR-5 > 100 µM | UACC-257 > 100 µM | KM12 86.9 µM | LOX IMVI > 100 µM | OVCAR-3 > 100 µM | SNB-75 22.5 µM | ACHN > 100 µM | HCC 2998 95.1 µM | SNB-19 93.3 µM | HL-60 > 100 µM | CCRF-CEM 30.1 µM | UO-31 > 100 µM | NCI-H226 > 100 µM

From ChEMBL document CHEMBL1201862, “PubChem BioAssay data set” (2004)
